For assay [1], the system named is AChE from Electrophorus electricus (electric eel). Conditions: cited from earlier work.
Assay [2] deals with AChE of bovine erythrocytes. Conditions: cited from earlier work.
The target of assay [3] is T1, electric eel AChE (Electrophorus electricus, UniProt O42275).
T1 construct: purchased Sigma-Aldrich
Briefly: Acetylcholinesterase (AChE) inhibition assay, Ellman method. In kind it is biochemical. The settings on record: for inhibition at 4 µg/mL: read-out: Acetylcholinesterase inhibitory activity at 4 µg/mL; for inhibition at 20 µg/mL: read-out: Acetylcholinesterase inhibitory activity at 20 µg/mL; for inhibition at 100 µg/mL: read-out: Acetylcholinesterase inhibitory activity at 100 µg/mL; for inhibition at 500 µg/mL: read-out: Acetylcholinesterase inhibitory activity at 500 µg/mL. How it is done:
Acetylcholinesterase (AChE) inhibitory activity of essential oil was determined according to the method described by Ellman and our previous study. The stock solution was obtained by dissolving the essential oil in DMSO (Merck), which was then diluted with H2O (deionized distilled water) to obtain different experimental concentrations. Each solution mixture consisted of 140 μL of phosphate buffer solution (pH: 8), 20 μL of essential oil at concentrations of 500, 100, 20, and 4 μg/mL, and 20 μL of the enzyme AChE (0.25 IU/mL, Sigma-Aldrich, St. Louis, MO, USA). The reaction mixtures were transferred to the test wells of a 96-well microtiter plate and incubated at 25 °C for 15 min. Then, solutions of 10 μL dithiobisnitrobenzoic acid (DTNB, 2.5 mM, Sigma-Aldrich) and 10 μL acetylthiocholine iodide (ACTI, 2.5 mM, Sigma-Aldrich) were added to each of the test wells and incubation continued for 10 min at 25 °C. […] Each test was carried out in triplicate.
(In general: In Ellman's method for cholinesterases, released thiocholine reacts with DTNB.)

Assay [4] deals with AChE from human erythrocytes. The settings on record: cited from earlier work.
Assay [5] deals with AChE. Conditions: cited from earlier work.
The mark [6] stands for this setting: IC50 (μM), IC50 ± standard deviation.
The mark [7] stands for this setting: IC50, IC50 ± standard deviation.

T1 sequence (O42275 24-633): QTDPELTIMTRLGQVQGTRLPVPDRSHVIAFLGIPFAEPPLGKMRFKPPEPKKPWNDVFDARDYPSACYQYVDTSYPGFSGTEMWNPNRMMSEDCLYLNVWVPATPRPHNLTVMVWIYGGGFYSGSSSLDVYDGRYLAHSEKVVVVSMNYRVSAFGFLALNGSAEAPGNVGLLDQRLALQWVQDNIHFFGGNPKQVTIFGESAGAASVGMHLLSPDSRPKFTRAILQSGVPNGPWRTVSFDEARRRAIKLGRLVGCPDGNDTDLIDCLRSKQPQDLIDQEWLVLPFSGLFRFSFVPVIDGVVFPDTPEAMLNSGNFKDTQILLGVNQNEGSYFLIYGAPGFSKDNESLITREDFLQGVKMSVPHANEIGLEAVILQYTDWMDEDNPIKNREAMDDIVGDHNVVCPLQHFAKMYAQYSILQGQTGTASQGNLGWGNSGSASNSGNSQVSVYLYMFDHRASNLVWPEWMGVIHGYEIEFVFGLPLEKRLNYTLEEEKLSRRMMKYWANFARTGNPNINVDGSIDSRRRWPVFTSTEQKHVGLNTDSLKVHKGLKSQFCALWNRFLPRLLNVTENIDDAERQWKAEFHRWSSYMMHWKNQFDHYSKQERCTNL

Turning to `CC12CCC(CC1)C(C)(C)O2` [1,8-Cineole, reference compound], the IC50 (commonly the concentration at which inhibition is half-maximal) in assay [1] is 6 µM; in assay [2] it was 390 ± 60 µM.

`C=C1CCC=C(C)CCC2C1CC2(C)C` (stereo not drawn) [(E)-β-Caryophyllene]: the “inhibition of AChE” value in assay [1] (concentration 0.06 mM) is recorded as 32%. In assay [3] (setting [6]), this molecule had a half-maximal inhibitory concentration (IC50) of 436 ± 29.9 µM. This molecule also had a 50% inhibitory concentration (IC50) in assay [3] (setting [7]) of 436 µM. In assay [3], the inhibition at 4 µg/mL was determined as 6.09%, the inhibition at 20 µg/mL came to 26.3%, the inhibition at 100 µg/mL came out at 52.9% and the inhibition at 500 µg/mL was determined as 79%. For the same molecule, the IC50 in assay [4] is 147 ± 15 µM.

Turning to `C=C1CC[C@H]2O[C@]2(C)CC[C@@H]2[C@@H]1CC2(C)C` [Caryophyllene Oxide], the AChE inhibition in assay [1] (200 µg/mL) is recorded as 41.46 ± 2.66%. Also, in assay [3] (setting [6]), the IC50 came out at 1450 ± 61 µM. The IC50 in assay [3] (setting [7]) was 1450 µM. In assay [3], the inhibition at 4 µg/mL was -2.11%, the inhibition at 20 µg/mL worked out at 0.49%, the inhibition at 100 µg/mL worked out at 16.9% and the inhibition at 500 µg/mL is 74%. Further, the AChE inhibition in assay [2] (250 µg/mL) is listed as 35 ± 4.7%.

The molecule `C=C(C)C1CC=C(C)CC1` (stereo not drawn) [Limonene] returned an IC50 in assay [3] (setting [6]) of 390 ± 30 µM. Further, the IC50 in assay [3] (setting [7]) is 390 µM. In assay [3], the inhibition at 4 µg/mL amounted to 18.2%, the inhibition at 20 µg/mL worked out at 27%, the inhibition at 100 µg/mL is 67.7% and the inhibition at 500 µg/mL is 90.8%.

Turning to `CC1(C)C2CC=C(C=O)C1C2` (stereo not drawn) [Myrtenal], the IC50 in assay [5] is 170 µM.

Turning to `C=C1CCC2(C(C)C)CC12` (stereo not drawn) [Sabinene], the IC50 in assay [5] was 1300 ± 21 µM.

As to `C=C(C)C1CC=C(C)C(O)C1` (stereo not drawn) [trans-Carveol], the IC50 in assay [3] (setting [6]) came to 676 µM. The same molecule had an IC50 in assay [3] (setting [7]) of 676 µM. For the same molecule, in assay [3], the inhibition at 4 µg/mL stood at 1.19%, the inhibition at 20 µg/mL stood at 16.8%, the inhibition at 100 µg/mL turned out to be 55.3% and the inhibition at 500 µg/mL worked out at 76.9%.

In assay [3] (setting [6]), `CC1=CCCC(C)=CCC(C)(C)C=CC1` [α-Humulene] returned a concentration for half-maximal inhibition (IC50) of 785 ± 66 µM. The molecule further gave an IC50 in assay [3] (setting [7]) of 785 µM. In assay [3], the inhibition at 4 µg/mL was found to be 19.4%, the inhibition at 20 µg/mL was determined as 25.1%, the inhibition at 100 µg/mL was found to be 44.3% and the inhibition at 500 µg/mL amounted to 72.8%.

For `CC1=CCC2CC1C2(C)C` (stereo not drawn) [α-Pinene, reference compound], the IC50 in assay [2] is 660 ± 40 µM.

Consider `CC1=CC=C(C(C)C)CC1` [α-terpinene], for which the IC50 in assay [5] is 1000 µM.

For `CC1=CC[C@@H](C(C)(C)O)CC1` [α-terpineol], in assay [5], the IC50 was 8400 ± 400 µM.

As to `C=C1CCC2CC1C2(C)C` (stereo not drawn) [β-Pinene], in assay [3] (setting [6]), the IC50 was 525 ± 42.4 µM. In assay [3] (setting [7]), this molecule had an IC50 of 524 µM. Further, in assay [3], the inhibition at 4 µg/mL stood at 20.9%, the inhibition at 20 µg/mL is 28.9%, the inhibition at 100 µg/mL was found to be 58.9% and the inhibition at 500 µg/mL came to 86.5%. For the same molecule, the IC50 in assay [2] was approximately 1500 µM.

The record behind these values is paper PMC9610647, “Acetylcholinesterase Inhibitory Activities of Essential Oils from Vietnamese Traditional Medicinal Plants” (Molecules, 2022).
